Patent US11925645B2, “Enhanced caffeinated beverage composition” (Ortho-Nutra, LLC, priority 2013, dated 2024)
Like-named read-outs stand apart in the source and are kept apart here.

Experiments:
[1] = Acute randomized placebo-controlled crossover trial of 200 mg TeaCrine: anchored VAS questionnaires; assay type: in vivo, human
Protocol: In order to examine the beneficial experiential effects and psychometric properties of theacrine supplementation in healthy subjects, explore optimal dosing and potential cumulative effects in a healthy human cohort with a 7-day, sub-acute repetitive dosing protocol, and acquire preliminary data on various biomarkers of safety and tolerability, an experiment was performed. […] A subset of 6 subjects underwent a separate 7-day, open-label, repeated dose study comparing 100 mg, 200 mg and 400 mg of TC. The experiment was a randomized, placebo-controlled, double-blind, within-subject crossover clinical trial (for N=15 study). A further subset study was open-label, sub-acute (7-day), repetitive dosing trial (for N=6 subset). Six (6) subjects provided written and dated informed consent to participate in the 7-day repetitive dosing study between Dec. 15, 2012 and Feb. 21, 2013. A separate cohort of fifteen (15) subjects provided written and dated informed consent for the acute dose, placebo-controlled, crossover clinical trial. All subjects were in good health as determined by physical examination and medical history, between the ages of 18 and 45 (inclusive). […] Subjects were willing and able to comply with the experimental and supplement protocol. […] Physical activity levels and health history were determined using standardized questionnaires. Heart rate and blood pressure were measured using an Omron HEM-780. Standing height was determined using a wall-mounted stadiometer. […] Medical Scale. A 100 mm anchored VAS questionnaire for energy, fatigue, and concentration was distributed at each acute lab session; additional VAS questionnaires were distributed for the daily assessment over a 6-hour period during the 7-day subset study. Quest Diagnostics (Pittsburgh, Pa.) was utilized to transport and analyze all blood samples. […] Statistical Analyses for Example 1. Descriptive statistics (mean, median, SD, 95% CIs) were used to quantify subjects physical characteristics. RM ANOVA, as well analyses of co-variance (ANCOVA), using baseline scores as the co-variate (respectively), were used to analyze between trial differences. Alpha was set to 0.05 (P≤0.05) for statistical significance, and <0.10 for trends. Effect sizes were also calculated. Upon arrival for the first testing session, subjects were randomly assigned to receive their respective supplement/placebo. Each subject ingested the sponsor recommended dosage of their respective supplement (1 capsule prior to schedule of assessments). Supplements were prepared in capsule form and packaged in coded generic containers for double-blind administration.

[2] = Theacrine-caffeine interaction study: single oral dose plasma pharmacokinetics (LC-MS/MS, noncompartmental); assay type: in vivo, human; conditions: for Vd/F: read-out: Vd/F; for MRT: read-out: MRT; for half-life: read-out: t1/2 (converted)
Text: Theacrine pharmacokinetics in humans has not been systematically characterized. Therefore, one purpose of this study, among others, was to determine theacrine pharmacokinetics and dose-linearity following oral administration in humans.
Eight healthy nonsmokers, including 4 men and 4 women, were recruited for the experiment.
Study Design and Procedures. […] Theacrine, administered as iTeaCrine.®, was provided by Compound Solutions (Carlsbad, Calif). […] Treatment sequence was randomized using a 4×4 Latin square. There was an approximate 1-week washout period between treatments for all subjects.
Test Visit Procedures. […] A catheter was inserted into the forearm vein for blood sampling. Duplicate measurements of resting heart rate and blood pressure were taken pre-dose and prior to each timed blood sample. In addition, respiratory rate was counted in one minute and body temperature was measured using an ear scanning thermometer (dual readings taken at each time).
All subjects were instructed to consume their usual diet throughout the study period, with the exception of the actual days of testing. During the two days prior to each test day, subjects recorded all food and drink consumed and attempted to mimic this intake for the two-day period prior to subsequent visits. Diet records were analyzed using nutrient analysis software (Food Processor SQL, version 9.9; ESHA Research, Salem, Oreg.). For the actual test days, standardized meals (meal replacement food bars [Clif “Builder's 20 g Protein Bar”] and ready-to-drink shakes [Orgain Organic Nutrition™]) were provided to the subjects after sample collection at hour 2 and hour 6 (one shake and one-half bar at each time). Subjects were also provided with adequate meal replacement bars and shakes to consume following the 8 hour sample collection. (during their time outside the lab). Each bar contained 280 calories, 10 grams of fat, 29 grams of carbohydrate, and 20 grams of protein. Each shake contained 250 calories, 7 grams of fat, 32 grams of carbohydrate, and 16 grams of protein. No food other than what was provided to the subjects was allowed during each study day, including both time spent in the lab and outside the lab. […] The subjects returned the following morning for the 24 hour blood collection, again in a 10 hour fasted state. The same volume of meal replacement bars or shakes was consumed by each subject during each visit (both in lab and outside lab).
Pharmacokinetic Study. Plasma concentration-time data were evaluated using noncompartmental methods in Phoenix WinNonlin (version 7.0; Pharsight Corporation, Mountain View, Calif) with adjustment for lag time after oral administration. The maximum concentration (Cmax), lag time (talag), and time of maximum concentration (tmax) were determined from the plasma concentration versus time data. The area under the plasma concentration-time curve from time 0 to infinity (was calculated using the trapezoidal rule extrapolated to time infinity). […] The oral clearance (CL/F) was calculated by dividing the oral dose by AUC0-∞. The apparent volume of distribution during the terminal elimination phase (Vz/F) was calculated by dividing CL/F by k. […]

[3] = both sexes, human, plasma, po, 125 mg
[4] = theacrine 125 mg + caffeine 150 mg versus theacrine 125 mg
[5] = theacrine with caffeine co-administration versus theacrine alone

Question: Which results are given for `Cn1c(=O)c2c(n(C)c1=O)n(C)c(=O)n2C` [Theacrine, 1,3,7,9-tetramethylpurine-2,6,8-trione]?
Answer: concentration (VAS) ([1]; 200 mg dose of TC, single dose, trend, vs. PLA −[…], P=0.07): +2.4%; fatigue (VAS) ([1]; 200 mg dose of TC, single dose, vs. PLA +5.8%, P=0.04): −6.7%; energy (VAS) ([1]; 200 mg dose of TC, single dose, vs. PLA −5.7%, P=0.049): +8.6%; perceived energy on VAS (FIG. 2) ([1]; 1, 2 and 3 hours after administration, vs placebo): higher levels of energy; perceived fatigue on VAS (FIG. 3) ([1]; 60 minutes after administration, vs placebo): lower levels of fatigue; Vd/F ([2]; both sexes, human, plasma, oral, theacrine, Condition 4: Theacrine 125 mg + Caffeine 150 mg, mean ± SD): 35.4 L; dose-adjusted Cmax ([2]; both sexes, human, plasma, po, 25 mg, Cmax, theacrine in plasma, Condition 1: Theacrine 25 mg single oral dose, dose-adjusted, mean ± SD): 34.1 ± 38.9 ng/mL/mg; Vd/F ([2]; both sexes, human, plasma, po, 25 mg, theacrine, Condition 1: Theacrine 25 mg single oral dose, mean ± SD): 48.1 ± 23.4 L; Tmax [2, 3]: 1.8 h; dose-adjusted Cmax ([2]; both sexes, human, plasma, po, 125 mg, Cmax, theacrine in plasma, Condition 2: Theacrine 125 mg single oral dose, dose-adjusted, mean ± SD): 25.6 ± 5.5 ng/mL/mg; Vd/F ([2]; both sexes, human, plasma, po, 125 mg, theacrine, Condition 2: Theacrine 125 mg single oral dose, mean ± SD): 50.5 ± 0.49 L; MRT [2, 3]: 36.8 ± 18.9 h; half-life [2, 3]: 26.1 ± 13.7 h; dose-adjusted Cmax ([2]; both sexes, human, plasma, po, Cmax, theacrine in plasma, Condition 4: Theacrine 125 mg + Caffeine 150 mg single oral dose, dose-adjusted, mean ± SD): 38.6 ± 16.6 ng/mL/mg; MRT ([2]; both sexes, human, plasma, theacrine, Condition 1: Theacrine 25 mg single oral dose, mean ± SD): 24.9 ± 3.5 h; half-life ([2]; both sexes, human, theacrine in plasma, Condition 1: Theacrine 25 mg single oral dose, mean ± SD): 16.5 ± 2.4 h; Tmax ([2]; both sexes, human, theacrine in plasma, Condition 1: Theacrine 25 mg single oral dose, median (range)): 1.8 h; time to reach maximal concentration ([2]; oral administration of theacrine alone): ≤ 2 h; decrease of theacrine oral clearance (CL/F) by caffeine [2, 4]: approximately 30%; decrease of theacrine oral volume of distribution (Vd/F) by caffeine [2, 4]: approximately 30%; theacrine absorption rate (Tmax) and half-life (t1/2) under caffeine co-administration ([2]; theacrine 125 mg + caffeine 150 mg versus theacrine alone): unaffected; absorption following oral administration ([2]; theacrine alone): well absorbed; dose-adjusted theacrine pharmacokinetic parameters, 25 mg versus 125 mg ([2]; theacrine alone): not significantly different; AUC ([2]; theacrine in plasma, Condition 1: Theacrine 25 mg single oral dose, dose-adjusted, mean ± SD): 809 ± 923 ng·h/mL/mg; AUC ([2]; theacrine in plasma, Condition 2: Theacrine 125 mg single oral dose, dose-adjusted, mean ± SD): 736 ± 312 ng·h/mL/mg; dose-adjusted Cmax ([2]; theacrine in plasma, Condition 4: Theacrine 125 mg + Caffeine 150 mg single oral dose, dose-adjusted, mean ± SD): 37.7 ± 16.5 ng/mL/mg; AUC ([2]; theacrine in plasma, Condition 4: Theacrine 125 mg + Caffeine 150 mg, dose-adjusted, mean ± SD): 1,242 ± 1,129 hr * ng/mL/mg; geometric mean ratio of AUC [2, 5]: 1.1 ±0.03; geometric mean ratio of Cmax [2, 5]: 1.1 ±0.06; CL/F ([2]; theacrine, Condition 1: Theacrine 25 mg single oral dose, mean ± SD): 2.0 ± 0.9 L/h; CL/F ([2]; theacrine, Condition 2: Theacrine 125 mg single oral dose, mean ± SD): 1.6 ± 0.5 L/h; CL/F ([2]; theacrine, Condition 2: Theacrine 125 mg single oral dose, mean ± SD, listed as theacrine): 1.6 ± 0.49 L/h; CL/F ([2]; theacrine, Condition 4: Theacrine 125 mg + Caffeine 150 mg, mean ± SD): 1.2 ± 0.6 L/h; CL/F ([2]; theacrine, Condition 4: Theacrine 125 mg + Caffeine 150 mg, mean ± SD, listed as theacrine): 1.2 L/h; AUC ([2]; theacrine, theacrine 125 mg alone): 740 ± 310 ng·h/mL/mg; AUC ([2]; theacrine, with caffeine co-administration (theacrine 125 mg + caffeine 150 mg)): 1200 ± 1100 ng·h/mL/mg
